The text below walks through data of patent publication US20220202940A1, “METHOD OF STABILIZING A DIALYSIS SOLUTION” (Fresenius Medical Care Deutschland GmbH, priority 2018, published 2022).

The conditions of this data set: 0.1 mmol/l orthophosphate added to DUOSOL 4551 after the start of the precipitation, 40° C.

Text: The pH at which a significant precipitation of calcium carbonate starts is a criterion for the stability of the solution and is subsequently called pHmax. […] The time at which the significant precipitation of calcium carbonate starts is subsequently called tG to represent the “time of germination”.
The stabilizing effect of a subsequent addition of phosphate or of a phosphate ester to existing dialysis solutions was examined using the rapid degassing method in a carousel setup. THz rapid degassing method in this variant allows an accelerated aging of dialysis solutions by degassing the CO2 from the bicarbonate buffer. The degassing of CO2 that normally occur slowly during the life of the products can be simulated within a few hours with this experiment setup.
Three separate experiments are carried out for each data point and the mean value is used.
That is, after a specific time period, 2.5 ml of a parent solution having 100 mmol/l glycerophosphate is added to the flasks containing 250 ml DUOSOL 4551, which results in a concentration of 1.0 mmol/l of glycerophosphate in the flask.

With `O=P(O)(O)O` [orthophosphate], the “dissolution of existing calcium carbonate precipitate” value was “not observed” and the “effect on precipitation of calcium carbonate” value is “inhibiting effect”.
